For 16 compounds, IC50 results are on record in patent US20210238192A1, “VASCULAR ADHESION PROTEIN-1 (VAP-1) MODULATORS AND THERAPEUTIC USES THEREOF” (Blade Therapeutics, Inc., priority 2018, published 2021).

Structures can show the parent of a compound that is named as a salt.

Common to all, as to assay type: biochemical
One assay has as its target T1, Human VAP-1 (Homo sapiens, UniProt Q16853).
T1 sequence (Q16853 1-763): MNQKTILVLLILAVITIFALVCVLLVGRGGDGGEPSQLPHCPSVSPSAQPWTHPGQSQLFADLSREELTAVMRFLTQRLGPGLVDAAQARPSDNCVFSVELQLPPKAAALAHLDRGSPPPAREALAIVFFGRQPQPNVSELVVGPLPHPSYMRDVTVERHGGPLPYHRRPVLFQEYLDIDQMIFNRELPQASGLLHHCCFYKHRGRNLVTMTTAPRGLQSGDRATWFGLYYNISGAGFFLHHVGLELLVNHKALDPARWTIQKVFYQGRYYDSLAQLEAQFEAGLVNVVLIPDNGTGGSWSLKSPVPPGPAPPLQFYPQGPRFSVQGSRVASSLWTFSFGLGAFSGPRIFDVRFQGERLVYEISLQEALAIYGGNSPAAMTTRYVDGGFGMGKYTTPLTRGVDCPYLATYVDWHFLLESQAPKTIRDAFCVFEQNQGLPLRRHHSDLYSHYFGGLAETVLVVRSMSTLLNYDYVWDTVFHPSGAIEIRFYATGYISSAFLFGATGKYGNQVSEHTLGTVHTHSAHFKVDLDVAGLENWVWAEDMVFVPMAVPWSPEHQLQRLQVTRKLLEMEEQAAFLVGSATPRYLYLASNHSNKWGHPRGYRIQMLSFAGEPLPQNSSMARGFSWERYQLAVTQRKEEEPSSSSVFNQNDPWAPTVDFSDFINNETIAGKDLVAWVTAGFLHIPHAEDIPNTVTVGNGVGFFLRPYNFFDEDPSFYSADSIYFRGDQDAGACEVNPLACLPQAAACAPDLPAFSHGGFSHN
The assay is described as follows: VAP-1 inhibition assay (Amplex Red continuous fluorescence assay). As to conditions: 30 min pre-incubation at 37° C.; substrate benzylamine; read-out: Human VAP-1 IC50. On the procedure:
(§1) VAP-1, DAO, MAO-A, MAO-B, and HRP activity and inhibition thereof was assessed by means of a continuous fluorescence assay. The Amplex Red Hydrogen Peroxide/Peroxidase Assay (ThermoFisher) was optimized for detecting amine oxidase (AO) activity. In an enzyme-coupled reaction, the H2O2 generated by AO reacts 1:1 with Amplex Red reagent to produce fluorescent product resorufin.
(§2) Assays were typically setup in black 384-well plates using automated liquid handling as follows. VAP-1/MAO assay buffer contains […] sodium phosphate, pH 7.4; DAO assay buffer contains 50 mM HEPES, pH 7.5; HRP assay buffer contains 100 mM CHES, 1 mM MgCl2, 50 mM NaCl, 0.05% BSA, pH 9.0. Inhibitors were serially diluted in DMSO and used to setup 2× mixtures with AO in the aforementioned buffer. After 30 min pre-incubation at 37° C. (VAP-1, HRP) or room temp (DAO, MAO), the reaction was initiated by adding a 2× mix of Amplex Red, HRP (coupling enzyme), and substrate (benzylamine, histamine, tyramine, benzylamine, H2O2, for VAP-1, DAO, MAO-A, MAO-B, and HR, respectively) in the same buffer. Reaction progress curve data were typically collected for 5 min using excitation/emission wavelengths of 510 nm/565 nm on FLIPR-Tetra plate readers (Molecular Devices Inc). Reaction rates were calculated from progress curve slopes typically over 60-150 sec. Dose response curves (rate vs. log inhibitor concentration) were typically fit to a 4-parameter logistic function to extract IC50 values.

Another assay concerns the target T2, Human MAO-A (Homo sapiens, UniProt P21397).
T2 sequence (P21397 1-527): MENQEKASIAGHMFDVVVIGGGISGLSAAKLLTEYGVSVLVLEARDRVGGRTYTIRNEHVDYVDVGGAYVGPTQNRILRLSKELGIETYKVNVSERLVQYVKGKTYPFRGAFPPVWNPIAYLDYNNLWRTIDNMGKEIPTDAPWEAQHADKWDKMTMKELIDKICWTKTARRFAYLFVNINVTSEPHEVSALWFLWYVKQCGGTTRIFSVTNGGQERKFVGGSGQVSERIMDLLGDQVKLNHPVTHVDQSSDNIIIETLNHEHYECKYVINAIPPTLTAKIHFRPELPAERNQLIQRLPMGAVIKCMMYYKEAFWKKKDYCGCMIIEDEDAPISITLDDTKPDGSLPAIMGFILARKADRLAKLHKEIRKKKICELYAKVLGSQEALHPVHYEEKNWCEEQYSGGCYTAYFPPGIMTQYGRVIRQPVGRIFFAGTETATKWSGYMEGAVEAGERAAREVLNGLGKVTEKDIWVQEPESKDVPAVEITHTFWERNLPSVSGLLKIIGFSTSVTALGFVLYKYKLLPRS
Nature of the assay: MAO-A inhibition (Amplex Red continuous fluorescence assay). As to conditions: 30 min pre-incubation at room temp; substrate tyramine; read-out: Human MAO-A IC50. How it is done:
as §1, §2

A further assay addresses T3, Human MAO-B (Homo sapiens, UniProt P27338).
T3 sequence (P27338 1-520): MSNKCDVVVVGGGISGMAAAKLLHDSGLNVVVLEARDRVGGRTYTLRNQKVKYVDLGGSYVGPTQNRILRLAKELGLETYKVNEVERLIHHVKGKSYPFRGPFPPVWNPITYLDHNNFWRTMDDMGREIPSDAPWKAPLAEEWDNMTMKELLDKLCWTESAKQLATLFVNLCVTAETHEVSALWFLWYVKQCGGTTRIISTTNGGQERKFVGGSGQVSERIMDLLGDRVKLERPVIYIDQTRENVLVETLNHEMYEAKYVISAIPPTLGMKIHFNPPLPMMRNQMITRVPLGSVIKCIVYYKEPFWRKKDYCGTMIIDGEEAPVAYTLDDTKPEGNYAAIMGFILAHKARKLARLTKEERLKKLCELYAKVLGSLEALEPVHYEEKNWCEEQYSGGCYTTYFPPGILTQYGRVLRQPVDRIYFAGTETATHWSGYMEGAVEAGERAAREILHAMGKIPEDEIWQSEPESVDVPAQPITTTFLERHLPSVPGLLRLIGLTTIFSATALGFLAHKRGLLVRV
The assay is described as follows: MAO-B inhibition (Amplex Red continuous fluorescence assay). As to conditions: 30 min pre-incubation at room temp; substrate benzylamine; read-out: Human MAO-B IC50. How it is done:
as §1, §2

A further assay has as its target T4, Human DAO (Homo sapiens, UniProt P19801).
T4 sequence (P19801 20-751): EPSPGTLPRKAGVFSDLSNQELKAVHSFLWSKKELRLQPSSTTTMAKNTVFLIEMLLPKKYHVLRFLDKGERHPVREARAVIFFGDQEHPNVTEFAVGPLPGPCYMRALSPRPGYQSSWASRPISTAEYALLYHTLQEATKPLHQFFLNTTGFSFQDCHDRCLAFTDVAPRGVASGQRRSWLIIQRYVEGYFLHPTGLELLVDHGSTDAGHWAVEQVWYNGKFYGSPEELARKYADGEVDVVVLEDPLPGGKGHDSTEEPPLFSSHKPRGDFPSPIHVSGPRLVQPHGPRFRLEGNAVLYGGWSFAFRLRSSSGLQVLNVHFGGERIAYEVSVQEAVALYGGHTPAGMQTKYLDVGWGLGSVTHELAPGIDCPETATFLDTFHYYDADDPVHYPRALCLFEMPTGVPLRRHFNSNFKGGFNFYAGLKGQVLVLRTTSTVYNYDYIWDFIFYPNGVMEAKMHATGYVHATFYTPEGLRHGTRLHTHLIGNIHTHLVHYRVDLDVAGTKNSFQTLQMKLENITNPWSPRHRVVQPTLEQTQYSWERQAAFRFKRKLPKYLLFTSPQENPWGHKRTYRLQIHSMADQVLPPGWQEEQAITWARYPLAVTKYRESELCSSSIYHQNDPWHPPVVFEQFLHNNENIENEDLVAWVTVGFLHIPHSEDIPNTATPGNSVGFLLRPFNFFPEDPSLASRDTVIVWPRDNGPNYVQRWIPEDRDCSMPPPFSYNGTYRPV
Nature of the assay: DAO inhibition (Amplex Red continuous fluorescence assay). As to conditions: 30 min pre-incubation at room temp; substrate histamine; read-out: Human DAO IC50. How it is done: as §1, §2

`CC(=O)N(CC(=CF)CN)Cc1ccccc1` [Compound 32]: the IC50 at Human VAP-1, at Human MAO-A and at Human MAO-B was greater than 10 µM each time.

Turning to `NC/C(=C/F)COc1ccc(-c2nccs2)cc1` [Compound 20, (Z)-3-Fluoro-2-((4-(Thiazol-2-Yl)Phenoxy)Methyl)Prop-2-En-1-Amine Hydrochloride], the IC50 at Human VAP-1, at Human MAO-A, on Human MAO-B and at Human DAO was less than 3 µM each time.

`NC/C(=C\F)CNS(=O)(=O)c1ccccc1` [Compound 17, (E)-N-(2-(aminomethyl)-3-fluoroalkyl)benzenesulfonamide hydrochloride]: the IC50 is 3 to 10 µM at Human VAP-1, greater than 10 µM on Human MAO-A and greater than 10 µM on Human MAO-B.

Turning to `CC(C)(C)NC(=O)c1cccc2c1ccn2CC(=CF)CN` [Compound 69, 1-(2-(aminomethyl)-3-fluoroalkyl)-N-(tert-butyl)-1H-indole-4-carboxamide], the IC50 at Human VAP-1 was less than 3 µM; at Human MAO-A, greater than 10 µM; on Human MAO-B it was less than 3 µM; on Human DAO, greater than 10 µM.

Consider `NC/C(=C/F)Cn1ncc(-c2ccc(O)cc2)n1` [Compound 58, (Z)-4-(2-(2-(aminomethyl)-3-fluoroalkyl)-2H-1,2,3-triazol-4-yl)phenol hydrochloride], for which the IC50 on Human VAP-1, on Human MAO-A, on Human MAO-B and on Human DAO was less than 3 µM each time.

As for `NC/C(=C\F)COc1ccc(-c2ncon2)cc1` [Compound 43, (E)-2-((4-(1,2,4-oxadiazol-3-yl)phenoxy)methyl)-3-fluoroprop-2-en-1-amine hydrochloride], the IC50 at Human VAP-1 was less than 3 µM; at Human MAO-A it was 3 to 10 µM; on Human MAO-B, less than 3 µM; at Human DAO, less than 3 µM.

Consider `NC/C(=C\F)COc1ccc(-c2ncco2)cc1` [Compound 25, (E)-3-fluoro-2-((4-(oxazol-2-yl)phenoxy)methyl)prop-2-en-1-amine hydrochloride], for which the IC50 at Human VAP-1 was less than 3 µM; on Human MAO-A it was 3 to 10 µM; on Human MAO-B, less than 3 µM; on Human DAO it was less than 3 µM.

Regarding `CCC(=O)Nc1ccc(OC/C(=C/F)CN)cc1` [Compound 82, (E)-N-(4-((2-(aminomethyl)-3-fluoroalkyl)oxy)phenyl)propionamide], the IC50 is less than 3 µM on Human VAP-1, 3 to 10 µM on Human MAO-A, less than 3 µM at Human MAO-B and 3 to 10 µM at Human DAO.

`NC/C(=C\F)COc1ccc(C(=O)NCCCCCNC(=O)CCCCC2SCC3NC(=O)NC32)cc1` (stereo not drawn) [Compound 76, (E)-4-((2-(aminomethyl)-3-fluoroalkyl)oxy)-N-(5-(5-(2-oxohexahydro-1H-thieno[3,4-d]imidazol-4-yl)pentanamido)pentyl)benzamide]: the IC50 at Human MAO-A was greater than 10 µM; at Human MAO-B it was less than 3 µM; on Human DAO it was less than 3 µM.

Turning to `NC/C(=C\F)COc1cccc2[nH]cnc12` [Compound 2, hydrochloride], the IC50 on Human VAP-1 was 3 to 10 µM; at Human MAO-A it was greater than 10 µM; on Human MAO-B, greater than 10 µM.

In the case of `NCC(=CF)CN1CCCCC1` (mixture of isomers) [Compound 12, 3-fluoro-2-(piperidin-1-ylmethyl)prop-2-en-1-amine], the IC50 at Human VAP-1, at Human MAO-A and on Human MAO-B was greater than 10 µM throughout.

`NC/C(=C\F)CNC1CCCCC1` [Compound 22, (E)-N1-cyclohexyl-2-(fluoromethylene)propane-1,3-diamine]: the IC50 at Human VAP-1 was greater than 10 µM; on Human MAO-A, greater than 10 µM; on Human MAO-B it was 3 to 10 µM.

In the case of `CC(=O)N(C/C(=C/F)CN)c1ccccc1` [Compound 1, (E)-N-(2-(aminomethyl)-3-fluoroalkyl)-N-phenylacetamide hydrochloride], the IC50 at Human VAP-1, at Human MAO-A and on Human MAO-B was greater than 10 µM in each case.

Turning to `NC/C(=C\F)COc1ccc(C(=O)NCCOCCOCCOCCNC(=O)CCCCC2SCC3NC(=O)NC32)cc1` (stereo not drawn) [Compound 77, (E)-4-((2-(aminomethyl)-3-fluoroalkyl)oxy)-N-(13-oxo-17-(2-oxohexahydro-1H-thieno[3,4-d]imidazol-4-yl)-3,6,9-trioxa-12-azaheptadecyl)benzamide], the IC50 on Human MAO-A is greater than 10 µM; at Human MAO-B, 3 to 10 µM; on Human DAO it was less than 3 µM.

With `Cn1ccnc1-c1ccc(OC/C(=C/F)CN)cc1` [Compound 27, (E)-3-fluoro-2-((4-(1-methyl-1H-imidazol-2-yl)phenoxy)methyl)prop-2-en-1-aminedihydrochloride], the 50% inhibitory concentration (IC50) on Human VAP-1 is less than 3 µM; on Human MAO-A, greater than 10 µM; on Human MAO-B, less than 3 µM.

For `CC(=O)N(CC(=CF)CN)C1CCCCC1` (mixture of isomers) [Compound 31, hydrochloride], the IC50 at Human VAP-1, at Human MAO-A and at Human MAO-B was greater than 10 µM throughout.

In general, IC50 refers to the point on the concentration scale where inhibition reaches its midpoint.
